{"source": "patent US20260215432A1", "about": "“ANTIMICROBIAL CONJUGATED OLIGOELECTROLYTES AND METHODS THEREOF” (National University of Singapore, priority 2023, published 2026)", "key": {"[1]": {"test_system": "PAO1", "assay": "Propidium iodide influx assay", "type": "cell-based, P. aeruginosa", "conditions": "PAO1, 2 to 8 μg mL^−1 (half to twice the MIC)", "text": "Another hallmark of cytoplasmic membrane damage is an enhanced permeability towards small molecules. Propidium iodide (PI) is a membrane-impermeant organic dye that can be used to study potential mechanisms of action of antibiotics due to its enhanced fluorescence intensity upon binding to intracellular DNA. Treatment with molecules that cause membrane perturbations enable rapid influx of the dye, resulting in an increase in fluorescence emission that can be monitored over time. […] This difference hints at two plausible mechanisms of action that are concentration dependent. Similar observations have been made for tobramycin, where a protein inhibition mode of action at lower concentrations (<4 μg mL^−1) is supplanted by disruption of the outer membrane at higher concentrations (8 μg mL^−1).\nThe assay was performed according to a modified reported protocol.^4 Briefly, the corresponding bacteria was collected from mid-log cultures by centrifugation (7000 rpm, 10 minutes) and washed thrice with PBS. The pellet was then resuspended in the same buffer and diluted to an optical density of 2 by extrapolation. […] Fluorescence intensity was measured over time in a plate reader with an excitation wavelength of 525 nm and emission wavelength of 620 nm. Fluorescence signals were measured every 30 seconds and carried out in triplicate."}, "[2]": {"test_system": "PAO1", "assay": "Flow cytometry of PI uptake", "type": "cell-based, P. aeruginosa", "conditions": "PAO1, 16 μg mL^−1 (4× MIC), PI staining", "protocol": "Flow cytometry measurements were carried out to quantify PI uptake at the cellular level.\nBacteria cells were collected from mid-log cultures by centrifugation (7000 rpm, 10 minutes). and washed with PBS twice. Cells were treated with the COE at 4×MIC and incubated for 30 minutes. PI (30 μM, final concentration) was then added and the cells were further incubated for 10 minutes. The suspension was then diluted in PBS to an appropriate cell density and analysed with flow cytometry using an Amnis ImageStreamX Mk II Imaging Flow Cytometer. The collection gate was set using the area vs aspect ratio of the brightfield channel to select for intact cell events only. To select for PI-stained cells, excitation was carried out using a 638 nm laser and the emission was collected in the range of 642-745 nm. Data was processed using IDEAS v6.3."}, "[3]": {"test_system": "Methicillin-resistant S. aureus (ATCC BAA1717)", "assay": "Minimum bactericidal concentration (MBC)", "type": "cell-based", "conditions": "strain MRSA; unit printed in b207 only", "protocol": "(§1) To study the extent to which TPP-COEs can effectively kill bacteria, bacteria cells treated with DM6P at varying concentrations were plated onto Tryptic Soy Agar (TSA) and the minimum bactericidal concentration (MBC), where complete eradication of the inoculum occurred, was determined (Table 5). MBC values ranged from 2 μg mL^−1 towards MRSA to 8 μg mL^−1 towards PAO1 and stayed within a two to four-fold range of the MIC values for all strains tested.\n(§2) Bacteria samples treated with DM6P at varying concentrations from a broth microdilution method in a 96-well plate according to the methods for determining the MIC. Colonies were plated on TSB agar plates with 20 μL inoculation and the plates incubated at 37° C. overnight. […] All measurements were performed in triplicate."}, "[4]": {"test_system": "K. pneumoniae (ATCC BAA1705)", "assay": "Minimum bactericidal concentration (MBC)", "type": "cell-based", "conditions": "strain CRKP; unit printed in b207 only", "protocol": "as §1, §2"}, "[5]": {"test_system": "E. coli. K12 (ATCC 10798)", "assay": "Minimum bactericidal concentration (MBC)", "type": "cell-based", "conditions": "strain EC; unit printed in b207 only", "protocol": "as §1, §2"}, "[6]": {"test_system": "P. aeruginosa (ATCC47085)", "assay": "Minimum bactericidal concentration (MBC)", "type": "cell-based", "conditions": "strain PA (PAO1); unit printed in b207 only", "protocol": "as §1, §2"}, "[7]": {"test_system": "E. faecalis OG1RF (ATCC 47077)", "assay": "Minimum bactericidal concentration (MBC)", "type": "cell-based", "conditions": "strain EF; unit printed in b207 only", "protocol": "as §1, §2"}, "[8]": {"test_system": "A. baumanii (ATCC 17978)", "assay": "Minimum bactericidal concentration (MBC)", "type": "cell-based", "conditions": "strain AB; unit printed in b207 only", "protocol": "as §1, §2"}, "[9]": {"test_system": "A549 (lung epithelial cells)", "assay": "Cytotoxicity against mammalian cell line", "type": "cell-based", "protocol": "The cytotoxicity of the TPP COEs was also tested against a mammalian cell line (A549)."}, "[10]": {"test_system": "PA", "assay": "MIC in physiological-mimicking environments (MHB)", "type": "cell-based, P. aeruginosa", "text": "The complexities of the physiological environment often influence drug activity, particularly when cations in solution are implicated in their oligomerization-dependent mechanisms of action, such as for daptomycin. Binding of free drug to plasma proteins effectively reduces the available free concentration of the drug capable of killing bacteria, resulting in lower observable activity. We tested MIC values of DM4P and DM6P in the presence of human serum albumin (40 g L^−1) and high salt concentrations (Table 4). Under these conditions, the antimicrobial activity was minimally affected by these environmental factors, with MICs remaining within a 2-fold level."}, "[11]": {"test_system": "MRSA", "assay": "Resistance development by serial passaging at 0.5× MIC", "type": "cell-based, S. aureus", "protocol": "The non-specific action of membrane-active antibiotics lends itself to minimal development of resistance development due to the large metabolic burden involved, unlike traditional antibiotics with a well-defined enzymatic target. Based on this premise, we passaged bacteria incubated with DM6P, or ciprofloxacin (control), at 0.5× MIC to investigate the adaptation of bacteria towards external antibiotic stress. As a control, treatment of MRSA with ciprofloxacin gave rise to antibiotic-resistant mutants within 4 passages, see FIG. 4a. […] Combined with its broad spectrum of activity, this feature opens opportunities for the use of COE antimicrobial agents to address polymicrobial infections with a lower rate of emerging antibiotic resistance."}, "[12]": {"conditions": "mice", "experimental": "At the end-point, mice were sacrificed and the individual organs and blood samples were collected. Tissues were fixed in 10% neutral-buffered formalin (NBF) for 48 hours and subjected to H&E staining and examination. Clinical blood biomarkers were analysed with a Pointcare® cM4 Blood Chemistry Analyzer (Tianjin MNCHIP Technologies Co., Ltd) according to the manufacturer's protocol."}, "[13]": {"conditions": "0.25 mg kg^−1, blood after 14 days, mean ± s.d. (n = 3)"}}, "data": [{"smiles": "COc1cc(/C=C/c2ccc(OCCCCCC[P+](c3ccccc3)(c3ccccc3)c3ccccc3)c(OC)c2)ccc1OCCCCCC[P+](c1ccccc1)(c1ccccc1)c1ccccc1.[I-].[I-]", "note": "[DM6P]", "values": [{"measurement": "PI influx", "setting": "[1]", "value": "increase in PI influx appeared to be independent of concentration"}, {"measurement": "PI uptake at the cellular level", "setting": "[2]", "value": "near quantitative cell staining with PI"}, {"measurement": "MBC", "setting": "[3]", "value": 2, "unit": "µg/mL"}, {"measurement": "MBC", "setting": "[4]", "value": 16, "unit": "µg/mL"}, {"measurement": "MBC", "setting": "[5]", "value": 2, "unit": "µg/mL"}, {"measurement": "MBC", "setting": "[6]", "value": 8, "unit": "µg/mL"}, {"measurement": "MBC", "setting": "[7]", "value": 4, "unit": "µg/mL"}, {"measurement": "MBC", "setting": "[8]", "value": 32, "unit": "µg/mL"}, {"measurement": "IC50", "setting": "[9]", "value": 11, "unit": "µg/mL"}, {"measurement": "MIC CaCl2", "setting": "[10]; CaCl2 1 mM", "value": 4, "unit": "µg/mL"}, {"measurement": "MIC MgCl2", "setting": "[10]; MgCl2 1.25mM", "value": 4, "unit": "µg/mL"}, {"measurement": "MIC NaCl", "setting": "[10]; NaCl 300 mM", "value": 8, "unit": "µg/mL"}, {"measurement": "MIC HSA", "setting": "[10]; human serum albumin 40 g L^−1", "value": 8, "unit": "µg/mL"}, {"measurement": "MIC —", "setting": "[10]; no additive", "value": 4, "unit": "µg/mL"}, {"measurement": "resistance development", "setting": "[11]", "value": "did not induce any observable resistant mutants"}, {"measurement": "ALB (albumin)", "setting": "[12]; [13]", "value": "30 ± 3.3", "unit": "g/L"}, {"measurement": "ALT (alanine transaminase)", "setting": "[12]; [13]", "value": "38.7 ± 4.1", "unit": "U/L"}, {"measurement": "AST (aspartate aminotransferase)", "setting": "[12]; [13]", "value": "205 ± 50.7", "unit": "U/L"}, {"measurement": "BUN (blood urea nitrogen)", "setting": "[12]; [13]", "value": "6.7 ± 0.3", "unit": "mM"}, {"measurement": "CRE", "setting": "[12]; [13]", "value": "63.7 ± 10.1", "unit": "µM"}, {"measurement": "GGT (gamma-glutamyl transferase)", "setting": "[12]; [13]", "value": "0.6 ± 0.1", "unit": "U/L"}, {"measurement": "GLO (globulin)", "setting": "[12]; [13]", "value": "18.6 ± 1.5", "unit": "g/L"}, {"measurement": "TBIL (total bilirubin)", "setting": "[12]; [13]", "value": "2.9 ± 0.5", "unit": "µM"}, {"measurement": "TP (total protein)", "setting": "[12]; [13]", "value": "48.6 ± 1.9", "unit": "g/L"}, {"measurement": "blood biomarker levels compared to saline-treated controls", "setting": "[12]; 0.25 mg/kg, after 14 days", "value": "no significant difference"}, {"measurement": "H&E staining of the major organs", "setting": "[12]; DM6P treated, 14 days post-treatment", "value": "did not reveal any abnormal signs"}]}]}
